Experimental data published in patent US7749967B2, “Peptides of a melanoma antigen and their use in diagnostic, prophylactic, and therapeutic methods” (The United States of America as represented by the …, priority 2001, dated 2010).

Tested on: gp100170-190-specific T cell clone (HLA-DRβ1*0701 restricted)
Assay: IFN-γ release by gp100-specific CD4+ T cell clones co-cultured with EBV-B cells pulsed with peptide or protein (ELISA)
Format: cell-based, human
Details: for Gp100 Peptide Identification (IFN-γ; pg/ml) 10 μM: peptide pulsed at 10 μM on EBV-B cells; for Gp100 Peptide Identification (IFN-γ; pg/ml) 10 μM / Gp100 Peptide Identification (IFN-γ; pg/ml) 50 μM: 24 h co-culture with T cell clone; for Gp100 Peptide Identification (IFN-γ; pg/ml) 50 μM: peptide pulsed at 50 μM on EBV-B cells
From the text: The reactivity of nine representative positive clones is presented in FIG. 1A along with 4 representative negative wells (neg1 to neg4). Eight of the 46 positive clones were expanded and further characterized. […] To further characterize the reactivity, some of the clones were co-cultured with autologous B cells pulsed with a bacterially produced gp100 protein. […] In order to identify the MHC restriction element, antibodies known to bind and block the presentation by defined MHC molecules were used. Recognition by clones 6 and 8 of target cells pulsed with the gp100 protein was inhibited when using blocking antibodies against MHC class II and HLA-DR but the recognition was unchanged when using a blocking MHC class I antibody. […] By using HLA-DR matched B cells, the restriction element was identified as HLA-DRβ1*0701 (patient A is HLA-DRβ1*0701 and *1601; FIG. 2).
To find the epitope recognized, an overlapping gp100 peptide library consisting of 68 peptides of 17 or 21 residues overlapping by 10-12 amino acids was prepared. The autologous EBV-B cells were pulsed with the peptide library and used as targets in a T cell recognition assay using three different T cell clones.
Finally, several peptides were synthesized in order to define an optimal HLA-DRβ1*0701 epitope (Rammensee, H. G. Immunogenetics 41:178-228, 1995; Chicz et al. J. Exp. Med. 178:27-47, 1993). […] Finally, substitutions were made at position 5 of the gp100174-394 peptide presuming that this is position 1 according to the defined motif for HLA-DRβ1*0701 (SYFPEITHI web site, http://syfpeithi.de/). However, none of the peptides were better recognized when pulsed at 10 μM or 1 μM compared to the wild type gp100174-394 peptide.
The gp100 peptide library consisted of 68 peptides of 17 to 21 residues overlapping by 10 to 12 amino acids. The peptides were synthesized by solid phase FMOC methodology as previously described (Parkhurst et al. J. Immunol. 157:2539-2548, 1996). A control peptide derived from the Ig kappa chain known to bind to HLA-DRβ1*0701 was also prepared (Chicz et al. J. Exp. Med. 178:27-47, 1993). Recombinant gp100 protein was made and purified as previously described Touloukian et al. J. Immunol. 164:3535-3542, 2000). Recombinant NY-ESO-1 protein is another tumor antigen (Chen, Y T and L J Old. Cancer J. Sci. Am. 5:16-17, 1999) used as negative control and was made and purified as previously described (Zeng et al. J. Immunol. 165:1153-1159, 2000). EBV-B cells (1×10^5) were pulsed with gp100-purified protein or peptides for 18 hours in 96 well flat-bottom plates and T cells were added directly to the pulsed-B cells for a 24 hours recognition assay. In some experiments, EBV-B cells (5×10^5) were pulsed in 48 well plates for 18 hours and cells were washed twice with PBS. T cells were then co-cultured with the pulsed EBV-B cells in 96 well flat-bottom plates for 24 hours. Supernatants were harvested and human IFN-γ was assayed by ELISA using a commercially available kit (R&D Inc.).
Fifty to one hundred thousand responder cells and 4×10^4-10^5 stimulator cells were mixed in 300 ul of AIM-V medium containing […] IL-2 per well in a 96 flat-well microplate. Target cells (1×10^5) were incubated with 1×10^5 specific T cells in 250 μl of T cell medium (AIM-V-based medium) in 96 well flat-bottom plates. Supernatants were harvested after 24 h and human IFN-γ was assayed by ELISA using a commercially available kit (R&D, Inc.; Minneapolis, Minn.).

Sequence	Gp100 Peptide Identification (IFN-γ; pg/ml) 10 μM	Gp100 Peptide Identification (IFN-γ; pg/ml) 50 μM	recognition in overlapping gp100 peptide library screen (68 peptides, all at 100 μM, autologous EBV-B cells, one of three T cell clones, FIG. 3A)	peptide concentration below which recognition was undetectable (titration) (gp100170-190-specific T cell clone, peptide pulsed on EBV-B cells, FIG. 3B)
GTGRAMLGTHTMEVTVYH [SEQ ID NO:10]	18,770 pg/ml	>25,000 pg/ml	–	–
GTGRAMLGTHTMEVTVYHRRG [SEQ ID NO:9]	22,910 pg/ml	>25,000 pg/ml	–	–
IGTGRAMLGTHTMEVTVYH [SEQ ID NO:11]	17,590 pg/ml	>25,000 pg/ml	–	–
IGTGRAMLGTHTMEVTVYHRR [SEQ ID NO:4]	17,050 pg/ml	>25,000 pg/ml	–	–
LSIGTGRAMLGTHTMEVTVYH [SEQ ID NO:3]	21,000 pg/ml	>25,000 pg/ml	specifically recognized	4 to 10 µM
MLGTHTMEVTVYHRRGSRSYV [SEQ ID NO:16]	52 pg/mL	5,940 pg/ml	–	–
PVSGLSIGTGRAMLGTHTMEV [SEQ ID NO:20]	<8 pg/mL	19 pg/mL	–	–
RAMLGTHTMEVTVYHRRGSRS [SEQ ID NO:15]	912 pg/mL	15,230 pg/ml	–	–
SGLSIGTGRAMLGTHTMEVTV [SEQ ID NO:14]	1,655 pg/ml	4,200 pg/ml	–	–
SIGTGRAMLGTHTMEVTVYH [SEQ ID NO:12]	20,710 pg/ml	>25,000 pg/ml	–	–
SIGTGRAMLGTHTMEVTVYHR [SEQ ID NO:13]	12,210 pg/ml	>25,000 pg/ml	–	–
TGRAFLGTHTMEVTVYHRRGS [SEQ ID NO:17]	19,390 pg/ml	>25,000 pg/ml	–	–
TGRALLGTHTMEVTVYHRRGS [SEQ ID NO:18]	23,140 pg/ml	>25,000 pg/ml	–	–
TGRAMLGTHTMEVTVYH [SEQ ID NO:2]	14,010 pg/ml	>25,000 pg/ml	–	–
TGRAMLGTHTMEVTVYHR [SEQ ID NO:6]	11,100 pg/ml	>25,000 pg/ml	–	–
TGRAMLGTHTMEVTVYHRR [SEQ ID NO:7]	11,550 pg/ml	>25,000 pg/ml	–	–
TGRAMLGTHTMEVTVYHRRG [SEQ ID NO:8]	17,910 pg/ml	>25,000 pg/ml	–	–
TGRAMLGTHTMEVTVYHRRGS [SEQ ID NO:5]	17,140 pg/ml	>25,000 pg/ml	–	–
TGRAYLGTHTMEVTVYHRRGS [SEQ ID NO:19]	11,640 pg/ml	>25,000 pg/ml	–	–
